# Data from patent publication US6949679B1, “Polyamine transport inhibitors” (Universite Laval, priority 1998, dated 2005).
# Read-outs that look alike come from different tables or passages of the source.
# What was measured:
# [1] = Stability in buffered aqueous solution; assay type: physicochemical; conditions: buffered at pH=7.0
# [2] = test system: ZR-75-1 cells; assay: Reversal of DFMO-induced growth inhibition by exogenous spermidine; assay type: cell-based, human; conditions: 50 μM DESC, DESC:spermidine ratio up to 500
# Experimental: For growth studies, ZR-75-1 cells were cultured in MEZR medium or in phenol red-free RPMI 1640 supplemented with 2 mM L-glutamine, 1 mM sodium pyruvate, 15 mM Hepes, antibiotics, 1 nM 17β-estradiol, 0.5 μg of bovine insulin per ml and 5% (v/v) charcoal-treated fetal bovine serum (SD medium), as indicated in the text. When polyamines or polyamine analogs were added to serum-containing media, 1 mM aminoguanidine was added to inhibit bovine serum amine oxidase (BSAO) activity (Morgan, D. M. L. 1989, in The Physiology of Polyamines (Bachrach, U., and Heimer, Y. M. eds) Vol. I, pp. 203-229, CRC Press, Boca Raton). The effect of the transport inhibitors on cell growth was measured by incubating ZR-75-1 cells for 11 days in medium supplemented with antagonist, polyamines and/or 1 mM DFMO as indicated, followed by colorimetric determination of DNA content with 3,4-diaminobenzoic acid (Simard, J., Dauvois, S., Haagensen, D. E., Lėvesque C., Mėrand, Y. and Labriė, F. 1990. Endocrinology 126: 3223-3231).
# This possibility was assessed by comparing the ability of DESC to prevent the reversal of DFMO-induced growth inhibition by increasing concentrations of exogenous spermidine.
# [3] = test system: polyamine transporter; assay: Inhibition of [3H]spermidine uptake in ZR-75-1 cells; assay type: cell-based, human
# Experimental: The rate of putrescine and spermidine transport was determined in ZR-75-1 cells incubated in serum-free RPMI 1640 medium as described (Lessard, M., Zhao, C., Singh, S. M. and Poulin, R. 1995. J. Biol. Chem. 270: 1685-1694), using [^3H]putrescine (30 Ci/mol) and [^3H]spermidine (20 Ci/mol), respectively as substrates for a 20 minute-assay period. Spermine uptake was similarly determined, using 1 μM [^14C]spermine (32 Ci/mol) as substrate. Uptake activity was expressed per amount of DNA as fluorometrically determined using 3,4-diaminobenzoic acid (Simard, J., Dauvois, S., Haagensen, D. E., Lėvesque, C., Mėrand, Y. and Labrie, F. 1990. Endocrinology, 126: 3223-3231). For the determination of spermidine uptake activity in CHO-K1 cells, 80% confluent cell monolayers were rinsed twice with PBS and incubated for 20 minutes at 37° C. in 400 μl of buffer A (20 mM Tris-HCl, pH 7.4; 0.42 mM CaCl2; 0.41 mM MgSO4; 103 mM NaCl; 5.7 mM KCl; 1.1 mM D-glucose) containing 5 μM [^3H]spermidine (20 Ci/mol). Cell cultures were then washed twice with 1 ml PBS containing 5.7 mM sym-norspermidine. Cells were then lysed with 200-μl aliquot of 1 N NaOH and incubated for 30 minutes at 60° C. After neutralization with 200 μl of 1 N HCl, radioactivity was determined from a 250-μl of the cell lysate by scintillation counting. Uptake activity was expressed per amount of total cellular protein as determined by the method of Bradford (Bradford, M. M. 1976. Anal. Biochem. 72: 248-254). Non-specific binding of radioactive substrate was similarly determined in parallel for both cell lines after a 15 second-incubation with 400 μl of ice-cold uptake solution.
# Kinetic analysis of polyamine transport was performed by determining uptake activity in the presence of a 3 μM [^3H]putrescine or 1 μM [^3H]spermidine plus increasing concentrations of nonradioactive substrate. K[…] Ki and Vmax values were then estimated by Lineweaver-Burke analysis. For competitive inhibitors, Ki values were also estimated by measuring uptake activity in the presence of logarithmically increasing concentrations of antagonist, and using the Cheng-Prusoff equation (Cheng, Y.-C. and Prusoff, W. H. 1973. Biochem. Pharmacol. 22: 3099-3108) by iterative curve fitting for a sigmoidal curve. For mixed competitive/noncompetitive inhibition, two methods were used to calculate kinetic constants. First, the equation [drawing 2] where v, s, and i are the transport velocity, substrate concentration and inhibitor concentration respectively, was used to calculate the inhibition constants for inhibitor/carrier complex formation (Ki) and carrier/inhibitor/substrate complex formation (Ki′) (Dixon, M. and Webb, E. C. 1976. Enzymes, 3rd Ed., Academic Press, San Diego, Calif.). […]
# In order to evaluate the effectiveness of dimeric triamines as polyamine transport inhibitors, we synthesized N,N′-bis(3-aminopropyl),N,N′-bis(4-aminobutyl)cystamine or BABAC (structure 1, FIG. 25; FIG. 31), and its thiol form N-(3-aminopropyl),N-(4-aminobutyl)cysteamine or AAC (FIG. 31) according to Scheme 4 described above (FIG. 30), using spermidine as a precursor polyamine. The ability of BABAC and AAC to inhibit the intracellular uptake of radio-labeled putrescine and spermidine in the ZR-75-1 human breast cancer cell line was then determined according to standard published procedures (Lessard, et al. and Poulin, et al.) Briefly, ZR-75-1 cells were grown for four days in twenty-four well plates in RPMI 1640 medium supplemented with 10% fetal bovine serum.
smiles,measurement,setting,value
"NCCCNCCCC(NCCCN)C(=O)NCCSSCCNC(=O)C(CCCNCCCN)NCCCN (stereo not shown) [DESC, 2,2′-dithiobis(N-ethyl-spermine-5-carboxamide)]",Stability in aqueous solutions,[1],stable for months
same,Ability to prevent reversal of DFMO-induced growth inhibition by spermidine,[2],unable to prevent the reversal
same,Ki,"[3]; FIG. 32, 20 μM and 3 μM substrate, respectively, read-out: Apparent Ki, spermidine uptake",5.6 µM
same,Ki,"[3]; this work, read-out: Ki, spermidine transport",2.7 ± 1.1 µM
